Data set [1] has as its system Human immunodeficiency virus 1. Nature of the data set: Antiviral activity against HIV1 harboring reverse transcriptase F227L/V106A double mutant infected in human MT4 cells assessed as inhibition of viral replication after 5 days by MTT assay. The class given is functional, cell-based. The note with it: Human immunodeficiency virus 1, MT4, 120 h. (Tetrazolium dyes change colour on reduction, which living cells bring about.)

For data set [2], the system named is Human immunodeficiency virus 1. Briefly: Antiviral activity against HIV1 harboring reverse transcriptase K103N mutant infected in human MT4 cells assessed as inhibition of viral replication after 5 days by MTT assay. The data set is classed as functional, cell-based. The note with it: Human immunodeficiency virus 1, MT4, 120 h.
Data set [3] relates to Human immunodeficiency virus 1. Nature of the data set: Antiviral activity against wild type HIV1 3B infected in human MT4 cells assessed as inhibition of viral replication after 5 days by MTT assay. The data set is classed as functional, cell-based. The note with it: Human immunodeficiency virus 1, 3B, MT4, 120 h.
The test system of data set [4] is Human immunodeficiency virus 1. Nature of the data set: Antiviral activity against HIV1 RES056 harboring reverse transcriptase K103N/Y181C double mutant infected in human MT4 cells assessed as inhibition of viral replication after 5 days by MTT assay. The data set is classed as functional, cell-based. The note with it: Human immunodeficiency virus 1, RES056, MT4, 120 h.

The subject of data set [5] is Human immunodeficiency virus 1. Briefly: Antiviral activity against HIV1 harboring reverse transcriptase Y188L mutant infected in human MT4 cells assessed as inhibition of viral replication after 5 days by MTT assay. The class given is functional, cell-based. The note with it: Human immunodeficiency virus 1, MT4, 120 h.
Data set [6] is described as follows: Cytotoxicity against human MT4 cells assessed as decrease in cell viability after 5 days by MTT assay. The data set is classed as cell-based.
For data set [7], the system named is Human immunodeficiency virus 1. Nature of the data set: Antiviral activity against HIV1 harboring reverse transcriptase E138K mutant infected in human MT4 cells assessed as inhibition of viral replication after 5 days by MTT assay. The note with it: Human immunodeficiency virus 1, MT4, 120 h. The class given is functional, cell-based.
In data set [8] the target is Human immunodeficiency virus type 1 reverse transcriptase (Human immunodeficiency virus 1, UniProt Q72547). Briefly: Inhibition of recombinant wild type HIV-1 reverse transcriptase p66/p51 using poly(rA)/oligo(dT)16 as template/primer after 40 mins by ELISA. (In general: In an ELISA, binding on a coated surface is turned into a signal by an enzyme label.)
Data set [9] is described as follows: Selectivity index, ratio of CC50 for human MT4 cells to EC50 for wild type HIV1 3B. The data set is classed as toxicity. The note with it: read-out: Ratio CC50/EC50.
Data set [10] deals with Human immunodeficiency virus 2. Briefly: Antiviral activity against HIV2 ROD infected in human MT4 cells assessed as inhibition of viral replication after 5 days by MTT assay. The class given is functional, cell-based. The note with it: Human immunodeficiency virus 2, ISOLATE ROD, MT4, 120 h.
Data set [11] deals with Human immunodeficiency virus 1. Briefly: Antiviral activity against HIV1 harboring reverse transcriptase L100I mutant infected in human MT4 cells assessed as inhibition of viral replication after 5 days by MTT assay. The class given is functional, cell-based. The note with it: Human immunodeficiency virus 1, MT4, 120 h.
For data set [12], the system named is Human immunodeficiency virus 1. Nature of the data set: Antiviral activity against HIV1 harboring reverse transcriptase Y181C mutant infected in human MT4 cells assessed as inhibition of viral replication after 5 days by MTT assay. The note with it: Human immunodeficiency virus 1, MT4, 120 h. The data set is classed as functional, cell-based.

Consider `Cc1cc(C#N)cc(C)c1Oc1nc(Nc2ccc(C#N)cc2)nc(N)c1Br` [ETRAVIRINE], for which the concentration giving a half-maximal response (EC50) (as a rule, the midpoint of the concentration-response curve) was 0.022 µM in data set [1]; 0.0036 to 0.004 µM in [2]; 0.0033 µM in [3]; 0.03 µM in [4]; 0.022 µM in data set [5]; 0.015 µM in data set [7]. Further, in data set [6], the CC50 (usually the concentration giving 50% cytotoxicity) at 120 h was 4.6 to 5 µM.

Take `CCOC(=O)C(=O)CC(=O)c1cccc(Oc2ccnc(Nc3ccc(C#N)cc3)n2)c1`: the half-maximal effective concentration (EC50) in data set [1] was greater than 13 µM; in data set [2], 13 to 14 µM; in data set [3] it was 0.18 µM; in [4], 13 to 14 µM; in data set [5], greater than 13 µM; in data set [10], greater than 10 µM. Besides, the values for the half-maximal effective concentration (EC50) in data set [11], in data set [7] and in data set [12] were greater than 13 µM, 10 µM and greater than 13 µM, respectively. Besides, the 50% inhibitory concentration (IC50) – broadly, the concentration needed to halve the response being measured – in data set [8] was 6.06 µM. For the same compound, the selectivity ratio in data set [9] is 78. In [6], the CC50 at 120 h was determined as 14 µM.

As for `O=C(O)C(=O)CC(=O)c1ccc(O)cc1`, the half-maximal effective concentration (EC50) in [3] and in [10] was greater than 600 µM throughout. In addition, in data set [9], the selectivity ratio was found to be 1. For the same compound, the CC50 at 120 h in data set [6] is greater than 600 µM.

`Cc1ccnc2c1NC(=O)c1cccnc1N2C1CC1` [NEVIRAPINE]: the EC50 is greater than 15 µM in data set [1]; greater than 15 µM in [2]; 0.084 µM in data set [3]; greater than 15 µM in data set [4]; greater than 15 µM in data set [5]; 1.8 µM in [11]. The 50% effective concentration (EC50) in data set [7] was 0.21 µM; in data set [12], greater than 15 µM. Also, in data set [9], the selectivity ratio is greater than 179. Besides, the 50% cytotoxic concentration (CC50) at 120 h in [6] was greater than 15 µM.

With `N#Cc1ccc(Nc2nccc(Oc3ccc(C(=O)CC(=O)C(=O)O)cc3)n2)cc1`, the EC50 in data set [1] is greater than 48 µM; in [2] it was 42 to 48 µM; in data set [3], 0.23 µM; in data set [4], 42 to 48 µM; in [5], greater than 48 µM; in [10], greater than 28 µM. Moreover, the EC50 in data set [11] was greater than 48 µM; in data set [7], 10 µM; in data set [12], greater than 48 µM. For the same compound, in [8], the IC50 worked out at 25.2 µM. In [9], the selectivity ratio lay in the range of 182 to 183. Moreover, the half-maximal cytotoxic concentration (CC50) at 120 h in [6] was 42 µM.

On to `Cc1cn([C@H]2C[C@H](N=[N+]=[N-])[C@@H](CO)O2)c(=O)[nH]c1=O` [ZIDOVUDINE], for which the concentration for a half-maximal effect (EC50) was 0.0035 µM in data set [1]; 0.016 µM in data set [2]; 0.0077 µM in [3]; 0.008 to 0.01 µM in [4]; 0.007 µM in [5]; 0.0052 µM in data set [11]. Besides, the figures for the EC50 in data set [7] and in data set [12] were 0.009 µM and 0.0057 µM, respectively. The selectivity ratio in data set [9] lay in the range of 971 to 974. Further, in [6], the 50% cytotoxic concentration (CC50) at 120 h fell in the range of 7 to 7.5 µM.

For `N#Cc1ccc(Nc2nccc(Oc3cccc(C(=O)CC(=O)C(=O)O)c3)n2)cc1`, the EC50 in [1] was 59 µM; in data set [2], 38 µM; in data set [3], 0.14 µM; in data set [4], 9 to 10 µM; in data set [5], greater than 10 µM; in [10], greater than 8 µM. The EC50 in data set [11] was greater than 10 µM; in data set [7], 43 µM; in data set [12], 50 µM. In addition, the IC50 in data set [8] worked out at 5.93 µM. Also, the selectivity ratio in data set [9] is 71 to 442. For the same compound, the 50% cytotoxic concentration (CC50) at 120 h in [6] was in the range of 10 to 62 µM.

As to `O=C(O)/C(O)=C/C(=O)c1cccc(Cc2ccccc2)c1`, the IC50 in data set [8] was greater than 100 µM. In data set [9], the selectivity ratio was greater than 61. In addition, the CC50 at 120 h in data set [6] was greater than 10 µM.

Turning to `CCOC(=O)C(=O)CC(=O)c1ccc(Oc2ccnc(Nc3ccc(C#N)cc3)n2)cc1`, the EC50 in data set [1] is greater than 22 µM; in data set [2], 10 µM; in [3], 0.19 µM; in data set [4], 18 to 22 µM; in data set [5], greater than 22 µM; in data set [10] it was greater than 16 µM. Also, the EC50 in [11] was greater than 22 µM; in data set [7], 7 µM; in data set [12], greater than 22 µM. Further, the concentration for half-maximal inhibition (IC50) in data set [8] amounted to 5.86 µM. The selectivity ratio in [9] was 95. In addition, in data set [6], the CC50 at 120 h was 18 µM.

`O=C1Nc2ccc(Cl)cc2[C@@](C#CC2CC2)(C(F)(F)F)O1` [EFAVIRENZ]: the EC50 was 0.13 µM in [1]; 0.12 to 0.17 µM in data set [2]; 0.0037 to 0.0054 µM in data set [3]; 0.12 to 0.17 µM in [4]; 0.17 µM in data set [5]; 0.038 µM in [11]. Also, the EC50 came out at 0.0047 µM in [7] and 0.0054 µM in data set [12]. Moreover, the selectivity ratio in data set [9] was in the range of 1720 to 2510. Also, in [6], the CC50 at 120 h lay in the range of 9 to 9.3 µM.

On to `CCOC(=O)C(=O)CC(=O)c1ccc(O)cc1`, for which the concentration for a half-maximal effect (EC50) in data set [3] is greater than 466 µM; in data set [10] it was greater than 312 µM. The selectivity ratio in [9] was less than 1. For the same compound, the CC50 at 120 h in [6] amounted to 466 µM.

In the case of `CCOC(=O)C(=O)CC(=O)c1cccc(O)c1`, the EC50 in data set [3] was 356 to 357 µM; in data set [10], greater than 357 µM. For the same compound, the selectivity ratio in data set [9] was less than 1. Also, in data set [6], the CC50 at 120 h was in the range of 356 to 364 µM.

With `O=C(O)C(=O)CC(=O)c1cccc(O)c1`, the EC50 in [3] and in data set [10] was greater than 528 µM in each case. In addition, the selectivity ratio in data set [9] was less than 1. The CC50 at 120 h in [6] was determined as 528 µM.
